Experimental data published in patent US20210220408A1, “ARYL HYDROCARBON RECEPTOR ANTAGONISTS AND METHODS OF USE” (Magenta Therapeutics Inc., priority 2018, published 2021).

Assays:
[1] = tested on: mobilized peripheral blood CD34+ cells; experiment: CD34+ expansion assay; type: cell-based; conditions: Homo sapiens; read-out: CD34 Frequency EC50
Description: Approximately 3,000 mobilized peripheral blood CD34+ cells were plated per well in 384-well plate at a final volume of 45 μL in HSC growth media (SFEM supplemented with Pen/Strep, 50 ng/mL FLT3L, TPO, SCF and IL-6). Serial dilutions were made in HSC growth media with a top final concentration of 10 μM. 5 μL 10× stock was added to each well. The plate was gently tapped on all sides and incubated for 7 days at 37° C./5% CO2. On day 7, the media was aspirated on a Biotek plate washer and 30 μL staining solution was added to the cells with antibodies against CD34-PE, CD90-APC, CD45RA-PE-CF594 in PBS. Cells were washed once in PBS and resuspended in 80 μL for final volume. 40 μL was acquired by flow cytometry (BD Celesta).

[2] = target: T1, aryl hydrocarbon receptor (AHR) (Homo sapiens, UniProt P35869); experiment: DRE-Luciferase reporter high-throughput screen (AHR antagonist, VAF347-activated)
T1 sequence (P35869 11-848): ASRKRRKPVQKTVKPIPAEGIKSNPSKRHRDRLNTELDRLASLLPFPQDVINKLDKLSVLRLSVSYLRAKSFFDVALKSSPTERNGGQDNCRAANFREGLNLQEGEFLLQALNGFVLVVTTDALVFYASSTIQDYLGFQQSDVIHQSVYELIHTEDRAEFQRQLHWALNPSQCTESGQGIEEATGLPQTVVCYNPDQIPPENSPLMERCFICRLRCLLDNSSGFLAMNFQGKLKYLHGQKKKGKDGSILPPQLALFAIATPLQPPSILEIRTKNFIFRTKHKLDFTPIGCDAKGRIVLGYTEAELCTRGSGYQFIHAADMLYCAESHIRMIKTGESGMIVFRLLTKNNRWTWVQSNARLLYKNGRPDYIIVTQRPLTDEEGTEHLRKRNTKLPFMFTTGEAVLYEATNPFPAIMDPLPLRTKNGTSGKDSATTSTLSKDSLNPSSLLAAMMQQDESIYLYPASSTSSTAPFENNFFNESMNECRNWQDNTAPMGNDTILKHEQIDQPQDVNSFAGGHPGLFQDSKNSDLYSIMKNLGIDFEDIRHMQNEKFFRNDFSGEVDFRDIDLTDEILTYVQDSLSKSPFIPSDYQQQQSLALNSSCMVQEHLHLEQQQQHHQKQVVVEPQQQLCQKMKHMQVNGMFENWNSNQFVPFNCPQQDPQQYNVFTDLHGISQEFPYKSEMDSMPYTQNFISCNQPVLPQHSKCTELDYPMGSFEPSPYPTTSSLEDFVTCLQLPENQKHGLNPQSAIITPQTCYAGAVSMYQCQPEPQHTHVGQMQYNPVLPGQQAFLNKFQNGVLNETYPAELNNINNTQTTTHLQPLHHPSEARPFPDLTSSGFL
Description: HepG2 hepatocellular carcinoma cells were transfected with a dioxin-response element (DRE) Firefly luciferase reporter construct. Luciferase transcription was activated with the aryl hydrocarbon receptor (AHR) agonist, VAF347. Addition of an AHR antagonist results in inhibition of the luciferase transcription and a loss of signal in the assay.
HepG2, a hepatocellular carcinoma cell line, was transfected with the dioxin-response element Firefly luciferase reporter construct using the TransIT-transfection system. Prior to transfection, HepG2 cells (Sigma) were cultured at 90% confluency in Eagle's Modified Essential Medium (Sigma)+2 mM Glutamine (Sigma), +1^% Non Essential Amino Acids (Sigma)+10% Fetal Bovine Serum (Hyclone) and harvested and counted (Biorad TC20 cell counter). OptilMEM serum-free media and TransIT (Mirus) were mixed for transfection in 150 mm dishes by adding 240 μL Transit to 3.0 mL OptiMEM, vortexing briefly to mix, and incubating at room temperature for 20 minutes. The DNA mixture was prepared by adding 80 μg plasmid (pGudLuc6.1 plasmid, Garrison et al., (1996) Fundam. Appl. Toxicol., 30, 194-203), inverting to mix, and incubating at room temperature for 30 minutes. 30×10^6 HepG2 cells were seeded in 30 mL media and 3.3 mL of the DNA, OptiMEM, and TransIT mixture was added dropwise to the plate. The plate was mixed by rocking and incubated at 37° C./5% CO2 overnight. The next day, cells were harvested by aspirating media, washing once with sterile phosphate buffered saline (PBS, Gibco), trypsinzing with 0.05% Trypsin (Corning) and harvesting cells with culture medium, and freezing with Cell Freezing Media (Gibco) at 5 50×10^6 cells/vial in 1 mL/vial.
Transiently-transfected frozen HepG2 cells with DRE-Luciferase, were thawed in a 37° C. water bath and resuspended in complete media. 4 μL cells at 15,000 cells per well was transferred into the wells of a 1536-well Alphaplate assay plate (PerkinElmer) using TEMPEST liquid dispenser. The plate was centrifuged at 1000 rpm for 1 minute. 30 nL of the controls (1 μM (S)-2-(6-((2-(1H-indol-3-yl)ethyl)amino)-2-(5-fluoropyridin-3-yl)-9H-purin-9-yl)propan-1-ol or 100% DMSO) were transferred to the assay plate using the Pin Tool on BRAVO. 1 μL of VAF347 (15 nM final concentration) in complete media was added to the wells using TEMPEST. The plate was centrifuged at 1000 rpm for 1 minute and incubated at 37° C./5% CO2 overnight. After incubation, the plate was removed from the incubator and brought to room temperature. 2 μL of room temperature Steady-Glo luciferase detection reagent (Promega) was added to the wells with TEMPEST. The plate was centrifuged at 2000 rpm for 1 minute, sealed with clear plastic seal and kept at room temperature for 15 minutes prior to measuring luminescence on ENVISION.
Approximately 166,000 compounds were screened in 132 1536-well plates in the luciferase reporter gene assay at a final concentration of 12 μM. […] Each compound was tested at 0.1 μM, 1.0 μM, and 10 μM in the DRE luciferase assay and Cell Titer Glo cytotoxicity assay (Promega). […] 512 compounds were selected for 10-point dose-response in the AHR luciferase reporter assay and the Cell Titer Glo cytotoxicity assay.

## CSc1ccc(N2C(=O)C3Cc4ccccc4CN3C2=O)cc1 (stereo not shown) [compound 120]
[1]
  EC50: 500 to 1000 nM
[2]
  IC50: 200 to 500 nM

## COc1ccc(-n2nnc(C(=O)Nc3ccccc3C(F)(F)F)c2N)cc1 [compound 28]
[1]
  EC50: 1000 to 5000 nM
[2]
  IC50: 200 to 500 nM

## N#Cc1ccc(-c2ccncc2)nc1SCc1ccccn1 [compound 89]
[1]
  EC50: < 500 nM
[2]
  IC50: 500 to 1000 nM

## Cc1ccc2nc(-c3ccc(NC(=O)COC(=O)c4ccc(O)cc4O)cc3)sc2c1 [compound 138]
[1]
  EC50: ≥ 5000 nM
[2]
  IC50: 500 to 1000 nM

## Cc1ccc(NC(=O)c2sc3nc(N)c(C#N)cc3c2N)cc1Cl [compound 19]
[1]
  EC50: < 500 nM
[2]
  IC50: < 200 nM

## CCC(=O)Nc1ccc(N2Cc3ccccc3C2=O)cc1 [compound 135]
[1]
  EC50: 1000 to 5000 nM
[2]
  IC50: 500 to 1000 nM

## COC(=O)c1sc(NC(=O)c2cc(C)n(C)n2)cc1C [compound 41]
[1]
  EC50: ≥ 5000 nM
[2]
  IC50: < 200 nM

## Cc1noc(C)c1C(=O)Nc1ccc2oc(-c3cc(F)ccc3Br)nc2c1 [compound 45]
[1]
  EC50: 500 to 1000 nM
[2]
  IC50: < 200 nM

## N#Cc1cccc(C#N)c1N1CCN(C(=O)Nc2ccccc2)CC1 [compound 79]
[1]
  EC50: ≥ 5000 nM
[2]
  IC50: 500 to 1000 nM

## COc1ccc(NC(=O)c2nnn(-c3cc(C)cc(C)c3)c2C)c(OC)c1 [compound 22]
[1]
  EC50: 500 to 1000 nM
[2]
  IC50: 500 to 1000 nM

## Cc1cccc(NC(=O)c2cc(-c3ccc(C)cc3O)n[nH]2)c1 [compound 20]
[1]
  EC50: 500 to 1000 nM
[2]
  IC50: 500 to 1000 nM

## Cn1c(SCc2ccc(-c3ccccc3)cc2)nnc1C(F)(F)F [compound 95]
[1]
  EC50: 1000 to 5000 nM
[2]
  IC50: 500 to 1000 nM

## COc1ccc(-c2n[nH]c3c2C(=O)CC(c2ccccc2)C3)cc1 (stereo not shown) [compound 117]
[1]
  EC50: < 500 nM
[2]
  IC50: < 200 nM

## COc1ccc(NC(=O)CNc2ccc(C(F)(F)F)cc2)cc1Cl [compound 127]
[1]
  EC50: 1000 to 5000 nM
[2]
  IC50: 500 to 1000 nM

## Cc1ccc2nc3sc(C(=O)Nc4cccc(C(F)(F)F)c4)cc3c(=O)n2c1 [compound 15]
[1]
  EC50: < 500 nM
[2]
  IC50: < 200 nM

## CC(=O)c1c(C)nc2nc(SCc3cccc(Cl)c3)nn2c1C [compound 125]
[1]
  EC50: 1000 to 5000 nM
[2]
  IC50: 500 to 1000 nM

## O=c1[nH]c(NC2CCCC2)nc2nccc(-c3cccs3)c12 [compound 129]
[1]
  EC50: 1000 to 5000 nM
[2]
  IC50: 200 to 500 nM

## Cc1ccc(-n2nnc(-c3nc4ccccc4s3)c2N)cc1 [compound 94]
[1]
  EC50: < 500 nM
[2]
  IC50: 500 to 1000 nM

## Cc1ccc2nc(-c3ccc(-c4ccccn4)s3)cn2c1 [compound 101]
[1]
  EC50: 500 to 1000 nM
[2]
  IC50: 500 to 1000 nM

## Cc1ccc2nc(-c3ccc(Cl)cc3)cc(C(N)=O)c2c1 [compound 116]
[1]
  EC50: < 500 nM
[2]
  IC50: < 200 nM
